Source: patent US9884825B2, “Curcumin analogs and methods of making and using thereof” (Georgia State University Research Foundation, Inc., priority 2012, dated 2018)

Experiments:
Molt4 cell = assay: Cytotoxicity against MOLT4 cell line; format: cell-based; conditions: Homo sapiens, MOLT-4; Table 3, SM compounds
[1] = tested on: human cervical cancer cells (HeLa); assay: MTT cytotoxicity assay, HeLa cells; format: cell-based; conditions: Homo sapiens, HeLa; Table 3, SM compounds; read-out: IC50 (μM) against Hela cell
Procedure: Two cell human cancer cell lines were used in this study: human cervical cancer cells (HeLa) and human embryonic kidney 293 cells (Hek). The cell lines were obtained from ATCC (Rockville, Md., USA). Cell lines were cultured at 37° C. and 5% CO2 in DMEM medium with 10% fetal bovine serum (FBS) and 1% penicillin/streptomycin (all obtained from GibcoBRL, Grand Island, N.Y.). Cells were passaged three times weekly by trypsinisation with 0.25% trypsin/0.02% EDTA solution (Sigma) into 75 cm^2 tissue culture flasks (Nunc, Denamark).
Both human cervical cancer cells (HeLa) and human embryonic kidney 293 cells (Hek) cell lines were seeded into 96-well plate (2.5×10^4 in 100 μL per well). Testing compounds were dissolved or suspended in DMSO to make 10 mM stock solutions. Addition of compounds was performed after adherent cells reached 40-50% confluence. After incubation for 48 h at 37° C. in humidified atmosphere with 5% CO2, 10 μL of MTT (5 mg/mL in PBS) was added to each well and incubated for another 4 h. The culture medium was then aspirated and 100 μL of DMSO was added to each well. Optical densities at 490 nm were measured by microplate reader (PERKINELMER VICTOR 3V model 1420). All tests were performed in triplicates. Doxorubicin was used as a positive control and the same amount DMSO without compound was used as negative control. IC50 values were obtained from the curve fitting by using Sigma plot10.

Row | Compound | IC50 (Molt4 cell) [µM] | IC50 [1] [µM]
1 | COc1cc(/C=C2\CC/C(=C\c3ccc(OCCn4ccnc4)c(OC)c3)C2=O)ccc1OCCn1ccnc1 [SM223] | > 2.5 | > 2.5
2 | COc1cc(/C=C2\CC/C(=C\c3ccc(OCCN4CCCCC4)c(OC)c3)C2=O)ccc1OCCN1CCCCC1 [SM226] | 0.4 | 0.02
3 | COc1cc(/C=C2\CC/C(=C\c3ccc(OCCN(C)C)c(OC)c3)C2=O)ccc1OCCN(C)C [SM229] | 0.5 | 0.03
4 | COc1cc(/C=C2\CC/C(=C\c3ccc(OCCn4ccnc4C)c(OC)c3)C2=O)ccc1OCCn1ccnc1C [SM232] | 0.9 | 0.1
